We go through five compounds from patent publication US4801597A, “Certain inositol-nicotinate ester derivatives and polyionic complexes therefore useful for treating diabetes meuitus, hyperlipidemia and lactic acidosis” (University of Florida, priority 1985, dated 1989).

The test system of one data set is serum glucose. As to the kind of experiment: Serum glucose lowering in fasted rats, single orogastric dose, monitored over 24 hours. Format: in vivo. As to conditions: sodium DCA 100 mg/kg or derivative equivalent to 100 mg/kg DCA. From the text:
(§1) Results are expressed as (1) maximum percent decrease in glucose or lactace, relative to control, (2) the time at which the maximum changes occurred, and (3) the duration of action of the drug.

A further data set concerns blood lactate. As to the kind of experiment: Blood lactate lowering in fasted rats, single orogastric dose, monitored over 24 hours. The data set is classed as in vivo. The note with it: for duration of action (blood lactate decrease): single orogastric dose, sodium DCA 100 mg/kg or derivative equivalent to 100 mg/kg DCA.
Text: as §1

A short description of data set [1]: Comparative pharmacokinetic investigations (bioavailability, oxalate formation). As to conditions: comparative pharmacokinetic investigations with DCA and Derivative 4. Format: in vivo.
Another data set deals with lactate oxidation. As to conditions: animal tissues; cited from earlier work.
Another data set has as its system blood glucose. As to conditions: patients with diabetes mellitus; cited from earlier work.
A further data set relates to lactic acid levels. As to conditions: patients with lactic acidosis; cited from earlier work.
Data set [2] concerns hepatic glucose production. The note with it: cited from earlier work.
The conditions of data set [3]: cited from earlier work.
The conditions of data set [4]: chronic administration, doses exceeding those used clinically; cited from earlier work.
The conditions of data set [5]: one human patient, about four months; resolved when treatment stopped; cited from earlier work.
In another data set the test system is peripheral tissues. The note with it: cited from earlier work.
The test system of another data set is blood cholesterol. The note with it: patients with various forms of hyperlipidemia; cited from earlier work.
For data set [6], the system named is circulating triglyceride and cholesterol. The note with it: obese and diabetic animals; cited from earlier work.

Molecules are shown by their SMILES.

Consider `O=C(OC1C(O)C(OP(=O)(O)O)C(OC(=O)C(Cl)Cl)C(OC(=O)C(Cl)Cl)C1OC(=O)C(Cl)Cl)C(Cl)Cl` (stereo not shown) [Derivative 2, inositol monophosphatetetradichloroacetate], for which the “duration of action (serum glucose decrease)” value in the data set with serum glucose is 24 h. In the data set with blood lactate, the “duration of action (blood lactate decrease)” value was over 24 h.

As to `C[n+]1cccc(C(=O)OC2C(OC(=O)c3ccc[n+](C)c3)C(OC(=O)c3ccc[n+](C)c3)C(OC(=O)c3ccc[n+](C)c3)C(OC(=O)c3ccc[n+](C)c3)C2OC(=O)c2ccc[n+](C)c2)c1` (stereo not shown) [Derivative 4, inositol hexa(N-methylnicotinate-dichloroacetate)], the formation of oxalate entry in data set [1] was “minimal and unlikely to be toxic”. For the same compound, the “duration of action (serum glucose decrease)” value in the data set with serum glucose is over 24 h. Further, the “duration of action (blood lactate decrease)” value with blood lactate was over 24 h.

With `O=C(OC1OC(C(=O)O)C(OC(=O)C(Cl)Cl)C(OC(=O)C(Cl)Cl)C1OC(=O)C(Cl)Cl)C(Cl)Cl` (stereo not shown) [Derivative 1, potassium tetra(dichloroacetyl)glucuronate], the “duration of action (serum glucose decrease)” value in the data set with serum glucose was over 24 h. Moreover, the “duration of action (blood lactate decrease)” value in the data set with blood lactate is over 24 h.

As for `O=C(OC1C(OC(=O)C(Cl)Cl)C(OC(=O)C(Cl)Cl)C(OC(=O)C(Cl)Cl)C(OC(=O)C(Cl)Cl)C1OC(=O)C(Cl)Cl)C(Cl)Cl` (stereo not shown) [Derivative 3, inositol hexadichloroacetate], in the data set on serum glucose, the “duration of action (serum glucose decrease)” value was determined as 6 h. The “potency relative to DCA (blood lactate)” value with blood lactate (FIG. 2, dose equivalent to 100 mg/kg DCA) is “less potent than DCA”. Moreover, the “duration of action (blood lactate decrease)” value with blood lactate came to 8 h.

As for `O=C(O)C(Cl)Cl` [DCA, dichloroacetic acid], the lactate oxidation entry in the data set on lactate oxidation is given as “stimulates lactate oxidation in animal tissues”. Besides, the blood glucose levels result with blood glucose is “decrease blood glucose levels in patients with diabetes mellitus”. Besides, the “lactic acid levels and overall morbidity” value in the data set on lactic acid levels was “significantly decreases lactic acid levels and overall morbidity in patients with lactic acidosis”. The hepatic glucose production result in data set [2] is “inhibits hepatic glucose production”. The in vivo oxidation entry in [3] was “oxidize in vivo to glyoxylate and subsequently to oxalate”. Besides, the “duration of action (serum glucose decrease)” value with serum glucose was found to be 17 h. In [4], the chronic toxicity entry was “reversible peripheral neuropathy, changes in testicular morphology and lenticular opacities”. Besides, in data set [5], the polyneuropathy result was “mild polyneuropathy that resolved when treatment stopped”. The “duration of action (blood lactate decrease)” value in the data set on blood lactate came to 18 h. For the same compound, the “glucose uptake and utilization” value with peripheral tissues is “stimulates glucose uptake and utilization by peripheral tissues”. For the same compound, in the data set on blood cholesterol, the blood cholesterol levels entry is “markedly decreases blood cholesterol levels”. Moreover, in data set [6], the “circulating triglyceride and cholesterol concentrations” value was “reduces circulating triglyceride and cholesterol concentrations”.
